Results reported in ChEMBL document CHEMBL1201862, “PubChem BioAssay data set” (2004).
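Briefly, cells in 96-well plates were exposed to five compound concentrations for 48 h, and endpoints were estimated by linear interpolation. At the GI50, growth is halved.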 Activity calls are given as the source filed them. Cut-off read from the data, not from the text of the source: active = GI50 up to about 1.1 µM and inactive = higher.

Assays:
Assay in all cases: NCI-60 cell line screen, 48 h
BT-549 = system: BT-549
CCRF-CEM = system: CCRF-CEM
COLO 205 = system: COLO 205
HCT-116 = system: HCT-116
KM12 = system: KM12
MDA-MB-231 = system: MDA-MB-231
Malme-3M = system: Malme-3M
OVCAR-3 = system: OVCAR-3
OVCAR-5 = system: OVCAR-5
SF-268 = system: SF-268
SK-MEL-5 = system: SK-MEL-5
SNB-19 = system: SNB-19
SNB-75 = system: SNB-75
SR = system: SR
TK-10 = system: TK-10
U-251 = system: U-251
UACC-257 = system: UACC-257
A549 = system: A549
HT-29 = system: HT-29

**Q.** `CNC(=O)C1OC(n2cnc3c(NCc4cccc(I)c4)nc(Cl)nc32)C(O)C1O` (stereo not given) was tested. Which GI50 (BT-549) did it give?
**A.** 14.1 µM (inactive)

**Q.** What about the GI50 (CCRF-CEM) of the same molecule?
**A.** 16.7 µM (inactive)

**Q.** What about the GI50 (COLO 205) of the same molecule?
**A.** 22.5 µM (inactive)

**Q.** And the GI50 (HCT-116)?
**A.** 15.6 µM (inactive)

**Q.** And the GI50 (KM12)?
**A.** 12 µM (inactive)

**Q.** What about the GI50 (MDA-MB-231) of the same molecule?
**A.** 22.8 µM (inactive)

**Q.** What about the GI50 (Malme-3M) of the same molecule?
**A.** 3.64 µM (inactive)

**Q.** What about the GI50 (OVCAR-3) of the same molecule?
**A.** 13 µM (inactive)

**Q.** What about the GI50 (OVCAR-5) of the same molecule?
**A.** 14 µM (inactive)

**Q.** What about the GI50 (SF-268) of the same molecule?
**A.** 11.4 µM (inactive)

**Q.** What about the GI50 (SK-MEL-5) of the same molecule?
**A.** 12 µM (inactive)

**Q.** And the GI50 (SNB-19)?
**A.** 12.4 µM (inactive)

**Q.** What about the GI50 (SNB-75) of the same molecule?
**A.** 0.839 µM (active)

**Q.** And the GI50 (SR)?
**A.** 14 µM (inactive)

**Q.** And the GI50 (TK-10)?
**A.** 16.3 µM (inactive)

**Q.** What about the GI50 (U-251) of the same molecule?
**A.** 14.8 µM (inactive)

**Q.** And the GI50 (UACC-257)?
**A.** 11.4 µM (inactive)

**Q.** With `O=C(OCc1ccccc1)N(CCCCN(CCCNCc1ccccc1)C(=O)OCc1ccccc1)CCCNCc1ccccc1` as the molecule, how does the GI50 (A549) read?
**A.** 0.782 µM (active)

**Q.** And the GI50 (BT-549)?
**A.** 1.62 µM (inactive)

**Q.** What about the GI50 (CCRF-CEM) of the same molecule?
**A.** 0.242 µM (active)

**Q.** What about the GI50 (COLO 205) of the same molecule?
**A.** 0.262 µM (active)

**Q.** What about the GI50 (HCT-116) of the same molecule?
**A.** 0.249 µM (active)

**Q.** And the GI50 (HT-29)?
**A.** 0.24 µM (active)

**Q.** And the GI50 (KM12)?
**A.** 0.43 µM (active)

**Q.** What about the GI50 (MDA-MB-231) of the same molecule?
**A.** 0.885 µM (active)

**Q.** And the GI50 (Malme-3M)?
**A.** 1.71 µM (inactive)

**Q.** What about the GI50 (OVCAR-3) of the same molecule?
**A.** 1.39 µM (inactive)

**Q.** What about the GI50 (OVCAR-5) of the same molecule?
**A.** 1.63 µM (inactive)

**Q.** And the GI50 (SF-268)?
**A.** 1.57 µM (inactive)

**Q.** What about the GI50 (SK-MEL-5) of the same molecule?
**A.** 0.697 µM (active)

**Q.** And the GI50 (SNB-19)?
**A.** 0.431 µM (active)

**Q.** And the GI50 (SNB-75)?
**A.** 1.43 µM (inactive)

**Q.** And the GI50 (SR)?
**A.** 0.191 µM (active)

**Q.** And the GI50 (TK-10)?
**A.** 1.58 µM (inactive)

**Q.** What about the GI50 (U-251) of the same molecule?
**A.** 0.258 µM (active)

**Q.** What about the GI50 (UACC-257) of the same molecule?
**A.** 0.36 µM (active)

**Q.** Which results are given for `c1ccc(CN2CCC(CNc3ncnc4ccccc34)C2)cc1` (stereo not given)?
**A.** GI50 (A549): > 100 µM (inactive); GI50 (BT-549): > 100 µM (inactive); GI50 (CCRF-CEM): 41 µM (inactive); GI50 (COLO 205): 29.5 µM (inactive); GI50 (HCT-116): 40.5 µM (inactive); GI50 (HT-29): 33.1 µM (inactive); GI50 (KM12): > 100 µM (inactive); GI50 (MDA-MB-231): > 100 µM (inactive); GI50 (Malme-3M): 19.5 µM (inactive); GI50 (OVCAR-3): > 100 µM (inactive); GI50 (OVCAR-5): > 100 µM (inactive); GI50 (SF-268): 51.5 µM (inactive); GI50 (SK-MEL-5): 21.2 µM (inactive); GI50 (SNB-19): > 100 µM (inactive); GI50 (SNB-75): > 100 µM (inactive); GI50 (SR): 17.2 µM (inactive); GI50 (TK-10): 44.5 µM (inactive); GI50 (U-251): 76.9 µM (inactive)

**Q.** For `Cc1ccc(C2SC(=N)Nc3c2c(C)nn3C(=O)c2ccc(Cl)cc2)cc1` (stereo not given), which GI50 (A549) is on record?
**A.** > 10 µM (inactive)

**Q.** What about the GI50 (BT-549) of the same molecule?
**A.** > 10 µM (inactive)

**Q.** And the GI50 (CCRF-CEM)?
**A.** > 10 µM (inactive)

**Q.** What about the GI50 (COLO 205) of the same molecule?
**A.** > 10 µM (inactive)

**Q.** What about the GI50 (HCT-116) of the same molecule?
**A.** > 10 µM (inactive)

**Q.** And the GI50 (HT-29)?
**A.** > 10 µM (inactive)

**Q.** And the GI50 (KM12)?
**A.** > 10 µM (inactive)

**Q.** And the GI50 (MDA-MB-231)?
**A.** > 10 µM (inactive)

**Q.** What about the GI50 (Malme-3M) of the same molecule?
**A.** > 10 µM (inactive)

**Q.** And the GI50 (OVCAR-3)?
**A.** > 10 µM (inactive)

**Q.** What about the GI50 (OVCAR-5) of the same molecule?
**A.** > 10 µM (inactive)

**Q.** What about the GI50 (SF-268) of the same molecule?
**A.** > 10 µM (inactive)

**Q.** What about the GI50 (SK-MEL-5) of the same molecule?
**A.** > 10 µM (inactive)

**Q.** And the GI50 (SNB-19)?
**A.** > 10 µM (inactive)

**Q.** And the GI50 (SNB-75)?
**A.** > 10 µM (inactive)

**Q.** And the GI50 (SR)?
**A.** > 10 µM (inactive)

**Q.** And the GI50 (TK-10)?
**A.** > 10 µM (inactive)

**Q.** And the GI50 (U-251)?
**A.** > 10 µM (inactive)

**Q.** And the GI50 (UACC-257)?
**A.** > 10 µM (inactive)

**Q.** `COC(=O)[C@H](C)[C@@H]1CC[C@](C)(CCC2=C(C)CCCC2(C)C)OO1` was tested. Which GI50 (A549) did it give?
**A.** > 25 µM (inactive)

**Q.** What about the GI50 (BT-549) of the same molecule?
**A.** > 25 µM (inactive)

**Q.** What about the GI50 (CCRF-CEM) of the same molecule?
**A.** 19.5 µM (inactive)

**Q.** And the GI50 (COLO 205)?
**A.** > 25 µM (inactive)

**Q.** What about the GI50 (HCT-116) of the same molecule?
**A.** > 25 µM (inactive)

**Q.** And the GI50 (HT-29)?
**A.** > 25 µM (inactive)

**Q.** What about the GI50 (KM12) of the same molecule?
**A.** > 25 µM (inactive)

**Q.** And the GI50 (MDA-MB-231)?
**A.** > 25 µM (inactive)

**Q.** And the GI50 (Malme-3M)?
**A.** > 25 µM (inactive)

**Q.** And the GI50 (OVCAR-3)?
**A.** > 25 µM (inactive)

**Q.** What about the GI50 (OVCAR-5) of the same molecule?
**A.** > 25 µM (inactive)

**Q.** And the GI50 (SF-268)?
**A.** > 25 µM (inactive)

**Q.** What about the GI50 (SK-MEL-5) of the same molecule?
**A.** > 25 µM (inactive)

**Q.** What about the GI50 (SNB-19) of the same molecule?
**A.** > 25 µM (inactive)

**Q.** What about the GI50 (SNB-75) of the same molecule?
**A.** > 25 µM (inactive)

**Q.** What about the GI50 (SR) of the same molecule?
**A.** > 25 µM (inactive)

**Q.** What about the GI50 (TK-10) of the same molecule?
**A.** > 25 µM (inactive)

**Q.** And the GI50 (U-251)?
**A.** > 25 µM (inactive)

**Q.** What about the GI50 (UACC-257) of the same molecule?
**A.** > 25 µM (inactive)

**Q.** Which GI50 (A549) does the source give for `Cc1nc2ccccc2c(=O)n1NC(=O)c1ccc(N)cc1` here?
**A.** > 100 µM (inactive)

**Q.** And the GI50 (BT-549)?
**A.** > 100 µM (inactive)

**Q.** And the GI50 (CCRF-CEM)?
**A.** > 100 µM (inactive)

**Q.** What about the GI50 (COLO 205) of the same molecule?
**A.** > 100 µM (inactive)

**Q.** And the GI50 (HCT-116)?
**A.** > 100 µM (inactive)

**Q.** What about the GI50 (HT-29) of the same molecule?
**A.** > 100 µM (inactive)

**Q.** What about the GI50 (KM12) of the same molecule?
**A.** > 100 µM (inactive)

**Q.** And the GI50 (MDA-MB-231)?
**A.** > 100 µM (inactive)

**Q.** And the GI50 (Malme-3M)?
**A.** > 100 µM (inactive)

**Q.** What about the GI50 (OVCAR-3) of the same molecule?
**A.** > 100 µM (inactive)

**Q.** And the GI50 (OVCAR-5)?
**A.** > 100 µM (inactive)

**Q.** And the GI50 (SF-268)?
**A.** > 100 µM (inactive)

**Q.** And the GI50 (SK-MEL-5)?
**A.** 17.8 µM (inactive)

**Q.** And the GI50 (SNB-19)?
**A.** > 100 µM (inactive)

**Q.** What about the GI50 (SNB-75) of the same molecule?
**A.** 14.6 µM (inactive)

**Q.** And the GI50 (SR)?
**A.** > 100 µM (inactive)

**Q.** And the GI50 (TK-10)?
**A.** > 100 µM (inactive)

**Q.** What about the GI50 (U-251) of the same molecule?
**A.** > 100 µM (inactive)

**Q.** And the GI50 (UACC-257)?
**A.** > 100 µM (inactive)

**Q.** For `CCCCCCCC1(N=[N+]=[N-])C(=O)Nc2ccccc2C1=O` (stereo not given), which GI50 (A549) is on record?
**A.** 14.8 µM (inactive)

**Q.** And the GI50 (BT-549)?
**A.** 16.7 µM (inactive)

**Q.** What about the GI50 (CCRF-CEM) of the same molecule?
**A.** 17.1 µM (inactive)

**Q.** What about the GI50 (COLO 205) of the same molecule?
**A.** 20 µM (inactive)

**Q.** And the GI50 (HCT-116)?
**A.** 17.3 µM (inactive)

**Q.** What about the GI50 (HT-29) of the same molecule?
**A.** 22.6 µM (inactive)

**Q.** What about the GI50 (KM12) of the same molecule?
**A.** 22.5 µM (inactive)

**Q.** What about the GI50 (MDA-MB-231) of the same molecule?
**A.** 21.7 µM (inactive)

**Q.** And the GI50 (Malme-3M)?
**A.** 17.7 µM (inactive)

**Q.** What about the GI50 (OVCAR-3) of the same molecule?
**A.** 16.1 µM (inactive)

**Q.** And the GI50 (OVCAR-5)?
**A.** 18.7 µM (inactive)

**Q.** What about the GI50 (SF-268) of the same molecule?
**A.** 15.6 µM (inactive)

**Q.** And the GI50 (SK-MEL-5)?
**A.** 15.1 µM (inactive)

**Q.** And the GI50 (SNB-19)?
**A.** 17.5 µM (inactive)

**Q.** What about the GI50 (SNB-75) of the same molecule?
**A.** 14 µM (inactive)

**Q.** What about the GI50 (SR) of the same molecule?
**A.** 24.2 µM (inactive)

**Q.** What about the GI50 (TK-10) of the same molecule?
**A.** 17.2 µM (inactive)

**Q.** And the GI50 (U-251)?
**A.** 15.1 µM (inactive)

**Q.** What about the GI50 (UACC-257) of the same molecule?
**A.** 21 µM (inactive)
